According to the kinase profiling compilation of Christmann-Franck et al. (2016):

Columns and labels:
Assay in all cases: KINOMEscan competition binding
Details in all cases: compound 10.0 µM
PRKG1 (human) = PRKG1 (human) (UniProt Q13976)
MAP2K6 (human) = MAP2K6 (human) (UniProt P52564)
MAP4K1 (human) = MAP4K1 (human) (UniProt Q92918)
MAPK7 (human) = MAPK7 (human) (UniProt Q13164)
TLK2 (human) = TLK2 (human) (UniProt Q86UE8)
CSNK1A1L (human) = CSNK1A1L (human) (UniProt Q8N752)
RPS6KA2 KD1 (human) = RPS6KA2 KD1 (human) (UniProt Q15349)
STK4 (human) = STK4 (human) (UniProt Q13043)
RIPK4 (human) = RIPK4 (human) (UniProt P57078)
WEE1 (human) = WEE1 (human) (UniProt P30291)
NEK7 (human) = NEK7 (human) (UniProt Q8TDX7)
EPHA3 (human) = EPHA3 (human) (UniProt P29320)
CDKL1 (human) = CDKL1 (human) (UniProt Q00532)
STK3 (human) = STK3 (human) (UniProt Q13188)
DAPK3 (human) = DAPK3 (human) (UniProt O43293)
DAPK3 (human), sequence (O43293 whole entry, looked up): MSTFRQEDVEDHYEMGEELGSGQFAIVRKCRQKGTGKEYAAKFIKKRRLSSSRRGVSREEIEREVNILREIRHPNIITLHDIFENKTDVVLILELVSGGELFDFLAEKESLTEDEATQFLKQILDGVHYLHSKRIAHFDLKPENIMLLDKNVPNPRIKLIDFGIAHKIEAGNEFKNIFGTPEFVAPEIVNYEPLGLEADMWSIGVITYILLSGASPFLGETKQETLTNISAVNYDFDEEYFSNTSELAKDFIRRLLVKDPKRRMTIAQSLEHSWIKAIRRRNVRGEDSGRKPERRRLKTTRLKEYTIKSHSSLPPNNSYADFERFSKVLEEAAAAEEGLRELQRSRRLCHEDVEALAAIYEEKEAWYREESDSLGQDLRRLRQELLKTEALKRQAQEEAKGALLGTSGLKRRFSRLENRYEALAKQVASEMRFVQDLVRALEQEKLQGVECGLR

STK32C (human) = STK32C (human) (UniProt Q86UX6)
STK32C (human), sequence (Q86UX6 whole entry, looked up): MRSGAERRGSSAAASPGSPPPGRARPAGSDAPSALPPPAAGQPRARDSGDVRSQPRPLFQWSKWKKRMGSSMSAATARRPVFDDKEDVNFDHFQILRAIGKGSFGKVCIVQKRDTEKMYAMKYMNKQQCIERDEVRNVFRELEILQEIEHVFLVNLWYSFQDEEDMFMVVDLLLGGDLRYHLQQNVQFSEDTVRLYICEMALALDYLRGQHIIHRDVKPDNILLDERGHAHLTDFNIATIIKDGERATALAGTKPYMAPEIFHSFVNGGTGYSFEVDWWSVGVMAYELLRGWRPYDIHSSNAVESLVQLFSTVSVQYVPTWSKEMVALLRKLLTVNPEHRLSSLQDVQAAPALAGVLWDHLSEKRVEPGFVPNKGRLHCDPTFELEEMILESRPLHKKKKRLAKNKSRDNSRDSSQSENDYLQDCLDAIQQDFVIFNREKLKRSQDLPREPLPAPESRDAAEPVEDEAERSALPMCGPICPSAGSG

PAK7 (human) = PAK7 (human) (UniProt Q9P286)
PAK7 (human), sequence (Q9P286 whole entry, looked up): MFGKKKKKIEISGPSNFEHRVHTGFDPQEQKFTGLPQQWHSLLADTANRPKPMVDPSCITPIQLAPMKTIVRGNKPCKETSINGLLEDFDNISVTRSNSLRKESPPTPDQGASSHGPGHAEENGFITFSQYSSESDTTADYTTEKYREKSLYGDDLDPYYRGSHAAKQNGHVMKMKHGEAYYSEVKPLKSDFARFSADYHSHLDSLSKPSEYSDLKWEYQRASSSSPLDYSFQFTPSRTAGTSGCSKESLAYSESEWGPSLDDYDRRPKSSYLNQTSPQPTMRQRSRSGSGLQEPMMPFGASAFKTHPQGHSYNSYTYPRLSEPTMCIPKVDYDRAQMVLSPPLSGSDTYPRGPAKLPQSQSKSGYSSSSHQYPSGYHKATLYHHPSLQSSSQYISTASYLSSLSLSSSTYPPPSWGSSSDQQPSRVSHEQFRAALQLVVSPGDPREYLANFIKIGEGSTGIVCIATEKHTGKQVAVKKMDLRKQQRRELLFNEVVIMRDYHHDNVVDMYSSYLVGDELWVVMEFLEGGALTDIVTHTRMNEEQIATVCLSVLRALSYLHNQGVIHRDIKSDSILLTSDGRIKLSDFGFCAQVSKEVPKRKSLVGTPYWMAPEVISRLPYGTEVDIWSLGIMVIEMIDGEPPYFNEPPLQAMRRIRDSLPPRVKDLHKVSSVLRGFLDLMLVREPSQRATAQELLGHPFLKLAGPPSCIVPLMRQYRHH

[1] = test system: EGFR (human), P00533 [L858R]
TIE1 (human) = TIE1 (human) (UniProt P35590)
DDR1 (human) = DDR1 (human) (UniProt Q08345)
RIPK1 (human) = RIPK1 (human) (UniProt Q13546)
DCLK2 (human) = DCLK2 (human) (UniProt Q8N568)
AURKB (human) = AURKB (human) (UniProt Q96GD4)
AURKB (human), sequence (Q96GD4 whole entry, looked up): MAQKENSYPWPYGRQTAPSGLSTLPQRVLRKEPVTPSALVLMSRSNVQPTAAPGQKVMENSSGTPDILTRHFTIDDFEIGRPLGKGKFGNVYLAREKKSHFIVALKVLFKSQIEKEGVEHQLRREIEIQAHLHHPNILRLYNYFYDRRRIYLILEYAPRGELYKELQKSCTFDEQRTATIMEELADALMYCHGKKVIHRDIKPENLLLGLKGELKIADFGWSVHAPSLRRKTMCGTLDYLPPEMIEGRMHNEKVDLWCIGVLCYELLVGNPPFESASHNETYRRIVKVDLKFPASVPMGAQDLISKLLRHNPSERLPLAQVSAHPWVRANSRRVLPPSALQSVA

ADCK4 (human) = ADCK4 (human) (UniProt Q96D53)
ADCK4 (human), sequence (Q96D53 whole entry, looked up): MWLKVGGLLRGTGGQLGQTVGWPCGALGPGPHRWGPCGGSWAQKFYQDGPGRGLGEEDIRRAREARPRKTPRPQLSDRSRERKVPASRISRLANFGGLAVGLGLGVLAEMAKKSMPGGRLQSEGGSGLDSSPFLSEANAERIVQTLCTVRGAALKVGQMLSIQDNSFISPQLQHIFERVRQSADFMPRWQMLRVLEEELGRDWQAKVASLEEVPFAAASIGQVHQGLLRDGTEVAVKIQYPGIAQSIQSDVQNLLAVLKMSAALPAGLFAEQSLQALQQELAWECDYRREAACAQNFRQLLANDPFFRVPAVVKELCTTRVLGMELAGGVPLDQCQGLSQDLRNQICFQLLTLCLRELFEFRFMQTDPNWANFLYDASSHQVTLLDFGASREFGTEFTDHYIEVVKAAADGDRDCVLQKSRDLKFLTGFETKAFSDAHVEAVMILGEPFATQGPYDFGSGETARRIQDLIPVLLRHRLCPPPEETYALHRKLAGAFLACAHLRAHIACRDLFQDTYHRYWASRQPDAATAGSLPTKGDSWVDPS

DMPK (human) = DMPK (human) (UniProt Q09013)
ACVR1 (human) = ACVR1 (human) (UniProt Q04771)
CLK1 (human) = CLK1 (human) (UniProt P49759)
CLK1 (human), sequence (P49759 whole entry, looked up): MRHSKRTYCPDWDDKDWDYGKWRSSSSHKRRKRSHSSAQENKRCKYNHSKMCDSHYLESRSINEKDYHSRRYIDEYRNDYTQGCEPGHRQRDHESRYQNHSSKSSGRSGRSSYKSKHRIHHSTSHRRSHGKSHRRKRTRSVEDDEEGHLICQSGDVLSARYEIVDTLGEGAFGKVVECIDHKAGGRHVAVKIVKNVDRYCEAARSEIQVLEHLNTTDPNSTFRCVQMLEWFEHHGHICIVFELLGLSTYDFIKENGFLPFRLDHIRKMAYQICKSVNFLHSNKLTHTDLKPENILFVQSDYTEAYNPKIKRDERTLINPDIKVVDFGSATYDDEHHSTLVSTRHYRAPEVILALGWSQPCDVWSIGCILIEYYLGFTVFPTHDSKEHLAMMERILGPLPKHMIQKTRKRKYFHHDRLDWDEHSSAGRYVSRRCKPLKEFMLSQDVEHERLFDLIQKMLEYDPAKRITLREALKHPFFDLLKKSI

ULK3 (human) = ULK3 (human) (UniProt Q6PHR2)
CPK1 (P.falciparum) = test system: CPK1 (P.falciparum)
CDK4 CCND1 (human) = CDK4 CCND1 (human) (UniProt P11802+P24385)
CDK4 CCND1 (human), sequence (P11802 whole entry, looked up): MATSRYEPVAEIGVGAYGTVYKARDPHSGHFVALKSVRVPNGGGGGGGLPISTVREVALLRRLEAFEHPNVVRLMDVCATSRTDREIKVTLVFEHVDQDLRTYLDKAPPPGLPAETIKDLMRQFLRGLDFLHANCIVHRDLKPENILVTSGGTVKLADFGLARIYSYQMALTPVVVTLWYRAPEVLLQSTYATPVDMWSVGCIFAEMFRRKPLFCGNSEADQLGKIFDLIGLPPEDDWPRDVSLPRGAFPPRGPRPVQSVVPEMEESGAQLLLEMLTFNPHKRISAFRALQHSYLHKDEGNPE
CDK4 CCND1 (human), sequence (P24385 whole entry, looked up): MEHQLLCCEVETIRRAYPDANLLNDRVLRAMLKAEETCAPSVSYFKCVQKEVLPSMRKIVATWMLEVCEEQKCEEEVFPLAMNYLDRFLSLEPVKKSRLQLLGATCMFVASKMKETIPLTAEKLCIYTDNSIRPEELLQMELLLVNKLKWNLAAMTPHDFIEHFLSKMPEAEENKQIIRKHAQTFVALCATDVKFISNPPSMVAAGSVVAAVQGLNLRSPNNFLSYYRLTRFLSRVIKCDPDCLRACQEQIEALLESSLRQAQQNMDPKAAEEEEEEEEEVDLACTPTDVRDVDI

MAPKAPK2 (human) = MAPKAPK2 (human) (UniProt P49137)
RIOK2 (human) = RIOK2 (human) (UniProt Q9BVS4)
AAK1 (human) = AAK1 (human) (UniProt Q2M2I8)
AAK1 (human), sequence (Q2M2I8 whole entry, looked up): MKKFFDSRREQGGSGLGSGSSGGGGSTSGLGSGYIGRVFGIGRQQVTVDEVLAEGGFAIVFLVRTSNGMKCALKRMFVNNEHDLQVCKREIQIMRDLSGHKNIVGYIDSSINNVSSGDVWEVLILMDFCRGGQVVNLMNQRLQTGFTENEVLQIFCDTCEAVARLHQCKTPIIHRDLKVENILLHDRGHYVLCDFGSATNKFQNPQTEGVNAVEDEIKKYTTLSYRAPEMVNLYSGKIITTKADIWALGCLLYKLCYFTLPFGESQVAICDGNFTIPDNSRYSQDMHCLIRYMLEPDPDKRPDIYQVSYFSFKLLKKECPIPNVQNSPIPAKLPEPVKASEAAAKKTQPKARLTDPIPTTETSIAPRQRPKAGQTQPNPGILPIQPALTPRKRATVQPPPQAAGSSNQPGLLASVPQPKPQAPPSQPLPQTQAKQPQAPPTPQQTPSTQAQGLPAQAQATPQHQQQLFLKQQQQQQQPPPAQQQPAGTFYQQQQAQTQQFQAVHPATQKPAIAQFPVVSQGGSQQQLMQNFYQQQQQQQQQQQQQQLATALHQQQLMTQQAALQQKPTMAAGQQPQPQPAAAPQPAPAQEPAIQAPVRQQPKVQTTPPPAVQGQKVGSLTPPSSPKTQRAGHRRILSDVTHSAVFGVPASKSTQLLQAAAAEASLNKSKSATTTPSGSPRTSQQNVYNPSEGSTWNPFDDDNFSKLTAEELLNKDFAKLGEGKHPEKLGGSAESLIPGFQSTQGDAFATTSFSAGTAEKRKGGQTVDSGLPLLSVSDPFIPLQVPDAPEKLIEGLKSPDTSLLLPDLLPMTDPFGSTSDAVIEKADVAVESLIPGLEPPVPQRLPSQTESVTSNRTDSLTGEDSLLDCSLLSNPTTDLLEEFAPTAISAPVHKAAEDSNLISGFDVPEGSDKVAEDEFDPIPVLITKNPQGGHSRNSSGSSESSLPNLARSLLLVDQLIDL

RAF1 (human) = RAF1 (human) (UniProt P04049)
EPHA1 (human) = EPHA1 (human) (UniProt P21709)
CLK3 (human) = CLK3 (human) (UniProt P49761)
GSK3B (human) = GSK3B (human) (UniProt P49841)
SBK1 (human) = SBK1 (human) (UniProt Q52WX2)
TGFBR1 (human) = TGFBR1 (human) (UniProt P36897)
TTK (human) = TTK (human) (UniProt P33981)
DYRK2 (human) = DYRK2 (human) (UniProt Q92630)
MAP4K5 (human) = MAP4K5 (human) (UniProt Q9Y4K4)

MAP2K6 (human), sequence (P52564 whole entry, looked up): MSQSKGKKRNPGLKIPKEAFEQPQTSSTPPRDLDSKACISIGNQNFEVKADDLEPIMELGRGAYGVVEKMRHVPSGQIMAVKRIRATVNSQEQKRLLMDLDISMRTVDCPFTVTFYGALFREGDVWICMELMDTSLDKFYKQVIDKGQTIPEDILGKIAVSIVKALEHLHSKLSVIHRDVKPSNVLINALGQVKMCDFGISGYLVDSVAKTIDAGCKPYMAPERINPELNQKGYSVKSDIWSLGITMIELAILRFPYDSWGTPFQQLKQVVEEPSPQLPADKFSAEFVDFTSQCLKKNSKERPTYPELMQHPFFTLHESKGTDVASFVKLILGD

`Cc1cc([C@@H](C)Nc2ccccc2C(=O)O)c2nc(N3CCOCC3)cc(=O)n2c1` gave a kinase still bound, per cent of control (PRKG1 (human)) of 79%, a kinase still bound, per cent of control (MAP2K6 (human)) of 91% and a kinase still bound, per cent of control (MAP4K1 (human)) of 90%. For the same molecule, the kinase still bound, per cent of control (MAPK7 (human)) was 100%, the kinase still bound, per cent of control (TLK2 (human)) was 100% and the kinase still bound, per cent of control (CSNK1A1L (human)) was 94%. For the same molecule, the kinase still bound, per cent of control (RPS6KA2 KD1 (human)) was 100%, the kinase still bound, per cent of control (STK4 (human)) was 72% and the kinase still bound, per cent of control (RIPK4 (human)) was 87%. The kinase still bound, per cent of control (WEE1 (human)) was 88%, the kinase still bound, per cent of control (NEK7 (human)) was 98% and the kinase still bound, per cent of control (EPHA3 (human)) was 85%. It also gave a kinase still bound, per cent of control (CDKL1 (human)) of 100%, a kinase still bound, per cent of control (STK3 (human)) of 97% and a kinase still bound, per cent of control (DAPK3 (human)) of 78%. It also gave a kinase still bound, per cent of control (STK32C (human)) of 89%, a kinase still bound, per cent of control (PAK7 (human)) of 92% and a kinase still bound, per cent of control [1] of 96%. It also gave a kinase still bound, per cent of control (TIE1 (human)) of 100%, a kinase still bound, per cent of control (DDR1 (human)) of 81% and a kinase still bound, per cent of control (RIPK1 (human)) of 100%. For the same molecule, the kinase still bound, per cent of control (DCLK2 (human)) was 100%, the kinase still bound, per cent of control (AURKB (human)) was 76% and the kinase still bound, per cent of control (ADCK4 (human)) was 95%. The kinase still bound, per cent of control (DMPK (human)) was 95%, the kinase still bound, per cent of control (ACVR1 (human)) was 100% and the kinase still bound, per cent of control (CLK1 (human)) was 56%. It also gave a kinase still bound, per cent of control (ULK3 (human)) of 100%, a kinase still bound, per cent of control (CPK1 (P.falciparum)) of 75% and a kinase still bound, per cent of control (CDK4 CCND1 (human)) of 38%. For the same molecule, the kinase still bound, per cent of control (MAPKAPK2 (human)) was 95%, the kinase still bound, per cent of control (RIOK2 (human)) was 35% and the kinase still bound, per cent of control (AAK1 (human)) was 91%. For the same molecule, the kinase still bound, per cent of control (RAF1 (human)) was 97%, the kinase still bound, per cent of control (EPHA1 (human)) was 100% and the kinase still bound, per cent of control (CLK3 (human)) was 95%. The kinase still bound, per cent of control (GSK3B (human)) was 100%, the kinase still bound, per cent of control (SBK1 (human)) was 100% and the kinase still bound, per cent of control (TGFBR1 (human)) was 100%. It also gave a kinase still bound, per cent of control (TTK (human)) of 88%, a kinase still bound, per cent of control (DYRK2 (human)) of 72% and a kinase still bound, per cent of control (MAP4K5 (human)) of 92%.
